Entries after “also recorded” stand apart in the source; their conditions may differ.
Experiments:
[1] = test system: TRPV1-R; settings: in vivo; cited from earlier work
[2] = test system: INS832/13 cells; assay: RNAi-knockdown of ABHD6, insulin secretion; type: cell-based; settings: siRNA transfection; for glucose-stimulated insulin secretion: 10 mM glucose
Experimental: INS 832/13 cells were plated at a density of 150 000 cells/well in a 12-well plate, in 1 ml complete RPMI medium, one day prior to RNAi transfection. On the next day, RNAi duplexes and lipofectamine-RNAimax™ were prepared separately. Then 24 pmol of each RNAi duplex was diluted in 100 μl Opti-MEM™ without serum and mixed gently. And at the same time, 2 μl of lipofectamine-RNAimax was diluted in 100 μl Opti-MEM without serum and mixed gently. Then the diluted RNAi duplex and RNAi-max reagents were mixed gently (200 μl volume) and incubated at room temperature for 20 min. This 200 μl mixture (which gives a final concentration of […] of RNAi), prepared separately for each well, was then added to the corresponding well with approximately 30% confluent INS cells. Following RNAi transfection, cells were incubated for 16 to 72 h. in a CO2 incubator at 37° C. Then the cells were starved by incubation in RPMI-1640 with 10% FBS and 1 mM glucose for 2 h. followed by washing one time with KRBH (containing 1 mM glucose and 0.5% BSA) and pre-incubation with the same KRBH for 45 min. Finally for following insulin secretion, cells were incubated in the KRBH buffer with 1 mM or 10 mM glucose for 2 h. The media and the cells were collected for insulin and protein assay as described above. The ABHD6-directed siRNAs and the control siRNAs were obtained from Ambion (Catalog #4390771; […]tt (ABHD6-6 sense or SEQ ID NO: 9), […]gt (ABHD6-6 anti-sense or SEQ ID NO: 10), […]tt (ABHD6-5 sense or SEQ ID NO: 11), […]at (ABHD6-5 anti-sense or SEQ ID NO: 12)). ABHD6-6 sense and antisense oligos are used in a similar fashion. Control siRNAs, which are non-targeting siRNAs with limited sequence similarity to known genes were obtained from Ambion (Catalog #AM4613 and AM4642) and were used to transfect the cells as described above. Additionally, non-treated cells and pBS (plasmid vector Bluescript) transfected cells were used as controls as well. Results of insulin secretion and ABHD6 expression in ABHD6-siRNA transfected cells were compared with different controls.

[3] = test system: INS 832/13 cells; assay: Effect of lipase inhibitors on [U-14C]-glucose incorporation into lipids; type: cell-based; settings: for glucose incorporation into 1-monoacylglycerol (1-MAG) / glucose incorporation into 2-monoacylglycerol (2-MAG) / glucose incorporation into diacylglycerol (DAG) / glucose incorporation into triglycerides (TG): 10 μM WWL70, 1 μM JZL184
Experimental: (§1) INS 832/13 cells (Hohmeir et al.) were cultured at 37° C. in a humidified atmosphere containing 5% CO2 in RPMI 1640 with sodium bicarbonate, supplemented with 10% (v/v) fetal calf serum (Wisent), 10 mM HEPES, pH 7.4, 2 mM L-glutamine, 1 mM sodium pyruvate and 50 μM β-mercaptoethanol (complete RPMI). Cells were grown to 80% confluence. Media were changed to RPMI 1640 containing 3 mM glucose supplemented as the complete RPMI 24 h prior to the experiments. Insulin secretion incubations were conducted in Krebs-Ringer bicarbonate buffer containing 10 mM HEPES, pH 7.4 (KRBH).
INS 832/13 cells were incubated overnight at 11 mM [U-^14C]-glucose in RPMI medium in a CO2-incubator in order to pre-label all the lipids in the cells. Then the cells were washed in KRBH (1 mM [U-^14C]-glucose) and pre-incubated for 45 min in KRBH at 1 mM [U-^14C]-glucose to bring metabolism to basal level. After this, cells were further incubated for 2 h in KRBH at 1 and 10 mM [U-^14C]-glucose and the indicated inhibitors. […] Then the cells were washed rapidly and flash-frozen in liquid nitrogen and extracted for lipids. Lipids were separated by TLC and the associated radioactivity was quantified. Neutral lipids were separated on boric acid/silica gel-TLC, with two solvent systems, first petroleum ether: diethyl ether: acetic acid (70:30:1), followed by second solvent system up to half of the plates, chloroform: acetone: acetic acid (60:40:1). Phospholipids were separated with a solvent system, chloroform: methanol: water (65:25:4).

[4] = test system: MAG lipase (MAGL); settings: cited from earlier work
[5] = test system: INS 832/13 cells; assay: Insulin secretion measurement in INS 832/13 cells (static incubation); type: cell-based; settings: for glucose-stimulated insulin secretion (GSIS): increasing glucose (5 and 10 mM), 10 μM WWL70, 50 μM orlistat, 1 μM JZL184; for KCl-stimulated insulin secretion: 35 mM KCl; for KCl-stimulated insulin secretion / insulin secretion stimulated by leucine+glutamine: 1 mM glucose, 10 μM WWL70 or 10 μM AMG9810; for insulin secretion stimulated by leucine+glutamine: Gln+Leu 5 mM each
Experimental: as §1
INS 832/13 cells were washed in KRBH containing 1 mM glucose and 0.5% defatted BSA (KRBH 1G/0.5% BSA) and pre-incubated for 45 min in KRBH 1G/0.5% BSA in presence of pharmacological agents (at indicated concentrations) or vehicle (DMSO). […] When examining the effect of 2-AG, it was added to cells at 0 to 1 μM concentration at 2 mM and 10 mM glucose. Insulin secretion from INS 832/13 cells was measured from either 45-min or 2-h static incubations in KRBH containing various glucose concentrations, 0.5% defatted BSA and pharmacological agents or vehicle, with or without 35 mM KCl or 0.3 mM palmitate, as specified.

[6] = test system: isolated CD1 mouse islets; assay: GSIS in isolated CD1 mouse islets; type: cell-based; settings: for GSIS: 20 μM WWL70 or 20 μM AMG9810 alone
Description: (§2) All procedures were approved by the Institutional Committee for the Protection of Animals at the Centre Hospitalier de l'Université de Montreal Research Center. Wistar rats or […] mice or CD1 mice (all male) from Charles River (St-Constant, QC, Canada) were anaesthetized with Somnotol® (MTC Pharmaceuticals, Canada) and sacrificed by exsanguination. Pancreatic islets were isolated by collagenase (type XI from Sigma) digestion of total pancreas (Gotoh et al.), followed by separation (centrifugation at 1040×g) on a Histopaque™ 1119, 1077 (Sigma) gradient. Isolated islets were handpicked and cultured overnight in a petri dish at 37° C. in a humidified atmosphere containing 5% CO2 in RPMI 1640 with sodium bicarbonate, supplemented with 10% fetal calf serum, 10 mM HEPES pH 7.4, 2 mM L-glutamine, 1 mM sodium pyruvate, 100 U/mL penicillin and 100 μg/mL streptomycin.
(§3) For insulin secretion from rat, mouse or human islets, batches of 10 islets were washed in KRBH containing 2.8 mM glucose and 0.5% defatted BSA, and pre-incubated for 45 min in KRBH containing 2.8 mM glucose, 0.5% defatted BSA and different pharmacological agents (at indicated concentrations) or DMSO. Islets were then incubated for either 45 min or 2 h in KRBH containing various glucose concentrations or 2.8 mM glucose plus 35 mM KCl, 0.5% defatted BSA in the presence or absence of drugs (at indicated concentrations) or vehicle (DMSO). At the end of the incubation, media were collected and insulin extracted from cells or islets in acid-ethanol (1.5% HCl, 75% ethanol). Total insulin contents and media insulin concentrations were determined by radioimmunoassay using human insulin standards (Linco Research, Mo.).

[7] = test system: human intact islets; assay: GSIS in human intact islets; type: cell-based; settings: one donor; for GSIS: 20 μM WWL70 or 20 μM AMG9810 alone
Experimental: Human islets were obtained from the Human Islet Isolation Core of MDRC, following appropriate ethical guidelines. The donor was a […] without any known metabolic disease. Islets were hand-picked and cultured overnight before use. Both rodent and human islets were also treated with trypsin to disperse islet cells and then cultured overnight in RPMI complete medium. These overnight cultured dispersed islets cells were then used for examining the effect of various pharmacological agents.
as §3

[8] = test system: rat intact islets; assay: GSIS in isolated intact rat islets; type: cell-based
Description: as §2
(§4) For insulin secretion from rat, mouse or human islets, batches of 10 islets were washed in KRBH containing 2.8 mM glucose and 0.5% defatted BSA, and pre-incubated for 45 min in KRBH containing 2.8 mM glucose, 0.5% defatted BSA and different pharmacological agents (at indicated concentrations) or DMSO. […] Total insulin contents and media insulin concentrations were determined by radioimmunoassay using human insulin standards (Linco Research, Mo.).

[9] = test system: isolated C57Bl6 mouse islets; assay: GSIS in isolated C57Bl6 mouse islets; type: cell-based; settings: for GSIS: 20 μM WWL70 or 20 μM AMG9810 alone, 2.8 and 11.1 mM glucose
Description: as §2, §3

[10] = test system: dispersed rat islet cells; assay: GSIS in dispersed rat islet cells; type: cell-based; settings: 20 μM WWL70, 20 μM AMG9810 or combination
Description: as §2, with “streptomycin. […]” for “streptomycin.”
as §4

[11] = test system: INS832/13 cell membrane extracts; assay: 1-OG (MAG) hydrolysis by cell membrane extracts, released oleic acid by HPLC; type: biochemical; settings: 50 μM 1-oleoylglycerol, 1 h at 30° C.
Experimental: 8 μg of […] cell membrane extracts were incubated with 50 μM of MAG (1-oleoylglycerol) and the indicated inhibitors for 1 h at 30° C. Released oleic acid was measured by HPLC after Dole's extraction and derivatization with bromoacetaminophenone.

[12] = test system: ABHD12; settings: cited from earlier work
[13] = test system: CD1 mice; assay: Oral glucose tolerance test (OGTT); type: in vivo, mouse; settings: WWL70 10 mg/kg intraperitoneally 2 h prior to oral glucose 2 g/kg
Experimental: Normal CD1 mice were fasted for 4 h prior to the oral glucose tolerance test (OGTT). […] Control mice (6) were given only vehicle. After 2 h, all mice were given a oral gavage of glucose (2 g/kg of body weight), followed by blood collection from the tail vein at the indicated times. Blood glucose (glucometer; Accu-Check™, Roche Applied Science) and plasma insulin (ELISA) (insulin mouse ultrasensitive electroimmunoassay, ALPCO Diagnostics, Salem, N.H.) were measured.

[14] = 1 and 10 mM [U14C]-glucose, 50 μM orlistat
[15] = 20 μM AMG9810, with 20 μM WWL70

Compound: C=C(C)[C@]12C[C@@H](C)[C@@]34O[C@](Cc5ccccc5)(O[C@@H]1[C@@H]3C=C(COC(=O)Cc1ccc(O)c(OC)c1)C[C@]1(O)C(=O)C(C)=C[C@@H]41)O2 [resiniferatoxin]
- plasma insulin levels [1]: elevates plasma insulin levels

Compound: ABHD6-siRNA6: annealed ABHD6-6 sense (SEQ ID NO: 9) and anti-sense (SEQ ID NO: 10) oligos, ABHD6-directed siRNA from Ambion (sense CGGAAAUUGUUUUUGGAAATT; antisense UUUCCAAAAACAAUUUCCGGT; chemistry not given here)
- glucose-stimulated insulin secretion [2]: significantly elevated

Compound: ABHD6-siRNA5: annealed ABHD6-5 sense (SEQ ID NO: 11) and anti-sense (SEQ ID NO: 12) oligos, ABHD6-directed siRNA from Ambion (sense CAGUUUGUAGAAUGCCUUATT; antisense UAAGGCAUUCUACAAACUGAT; chemistry not given here)
- basal insulin secretion ([2]; 1 mM glucose): increased
- glucose-stimulated insulin secretion [2]: significantly elevated

Compound: O=C(Oc1ccc([N+](=O)[O-])cc1)N1CCC(C(O)(c2ccc3c(c2)OCO3)c2ccc3c(c2)OCO3)CC1 [JZL184]
- release of [U14C]-free fatty acids (FFA) ([3]; 1 and 10 mM [U14C]-glucose, 50 μM orlistat, 1 μM JZL184): no effect
- glucose incorporation into 1-monoacylglycerol (1-MAG) [3, 14]: elevated
- glucose incorporation into 2-monoacylglycerol (2-MAG) [3, 14]: elevated
- glucose incorporation into diacylglycerol (DAG) [3, 14]: no effect
- glucose incorporation into triglycerides (TG) [3, 14]: no effect
- effect on MAG lipase (MAGL) [4]: specifically inhibits MAGL
- glucose-stimulated insulin secretion (GSIS) [5]: no effect

Compound: CC(C)(C)c1ccc(/C=C/C(=O)Nc2ccc3c(c2)OCCO3)cc1 [AMG9810]
- WWL70-enhanced GSIS ([6]; 20 μM WWL70 + 20 μM AMG9810): antagonized
- GSIS [6]: without significant effect on GSIS per se
- GSIS inhibition by AMG9810 (WWL70-augmented) [7, 15]: inhibition of GSIS
- GSIS [7]: without significant effect on GSIS per se
- WWL70-enhanced GSIS ([8]; 20 μM WWL70 + 20 μM AMG9810): antagonized
- WWL70-enhanced GSIS ([5]; 10 μM WWL70, AMG9810 at 10 μM, 1, 5, 10 mM glucose): completely antagonized the WWL70 stimulation
- KCl-stimulated insulin secretion [5]: Neither WWL70 nor AMG9810 had any effect
- GSIS, AMG9810 alone ([5]; 1, 5, 10 mM glucose, AMG9810 concentration series): dose-dependently reduces GSIS
- insulin secretion stimulated by leucine+glutamine [5]: inhibited
- GSIS inhibition by AMG9810 (WWL70-augmented) [9, 15]: inhibition of GSIS
- GSIS [9]: without significant effect on GSIS per se
- GSIS [10]: inhibition of GSIS

Compound: CN(Cc1cccc(-c2ccncc2)c1)C(=O)Oc1ccc(-c2ccc(C(N)=O)cc2)cc1 [WWL70]
- GSIS [6]: enhanced GSIS
- decrease of FFA release (fraction) ([3]; 10 μM WWL70): about ⅔
- glucose incorporation into phospholipids ([3]; 1 and 10 mM [U14C]-glucose, 50 μM orlistat, 10 μM WWL70): None of the lipase inhibitors had any significant effect
- glucose incorporation into 1-monoacylglycerol (1-MAG) [3, 14]: elevation
- glucose incorporation into 2-monoacylglycerol (2-MAG) [3, 14]: elevation
- glucose incorporation into diacylglycerol (DAG) [3, 14]: Neither of the inhibitors had any effect
- glucose incorporation into triglycerides (TG) [3, 14]: marginal effect
- GSIS [7]: enhancement
- effect on MAG lipase (MAGL) [4]: no effect
- GSIS ([8]; 20 μM WWL70): enhanced GSIS
- 1-OG hydrolysis activity (released oleic acid) [11]: inhibited the 1-OG hydrolysis activity
- portion of GSIS amplified by palmitate ([5]; 10 μM WWL70, glucose + palmitate): not further enhanced
- WWL70 concentration reaching near maximal enhancement of GSIS ([5]; 5 mM and 10 mM glucose): ~10 µM
- KCl-stimulated insulin secretion [5]: Neither WWL70 nor AMG9810 had any effect
- insulin secretion stimulated by leucine+glutamine [5]: enhanced
- glucose-stimulated insulin secretion (GSIS) [5]: almost doubled the GSIS; also recorded: robust increase
- effect on ABHD12 [12]: no effect
- GSIS [9]: enhancement
- glycemia [13]: better controlled the glycemia
- plasma insulin levels [13]: significantly elevated
- GSIS [10]: enhancement

Source: patent publication US20180113115A1, “SCREENING ASSAYS BASED ON MAG AND/OR ABHD6 FOR SELECTING INSULIN SECRETION PROMOTING AGENT” (VAL-CHUM, LIMITED PARTNERSHIP, priority 2010, published 2018)
